Experimental data from US6264935A, “Ophthalmic composition containing a carbonic anhydrase inhibitor and xanthan gum” (priority 1996, dated 2001).
“Also recorded” adds a separate entry of the source.

Assays:
[1] = rabbit, in vivo
[2] = background; result in words; cited from earlier work

| Molecule | change in ocular bioavailability compared with the TRUSOPT formulation [1] | duration of activity and loss of effect [2] | reduction of intraocular pressure [2] | side effects / local effects [2] |
| --- | --- | --- | --- | --- |
| cyclodextrin | only minor changes in bioavailability | – | – | – |
| polyvinyl alcohol | only minor changes in bioavailability | – | – | – |
| CC(C)(C)NC[C@H](O)COc1nsnc1N1CCOCC1 [timolol] | – | long duration of activity; also recorded: minimal loss of effect with increased duration of dosing | found to reduce intraocular pressure | devoid of many unwanted side effects associated with pilocarpine; also recorded: devoid of local anaesthetic properties |
| CC[C@@H]1C(=O)OC[C@@H]1Cc1cncn1C [pilocarpine] | – | – | reduce intraocular pressure | undesirable local effects |
